Like-named read-outs stand apart in the source and are kept apart here.

Five compounds from patent publication US11572398B2, “GLP-1 derivatives and uses thereof” (Novo Nordisk A/S, priority 2014, dated 2023) can be followed below.

Experiment [1] addresses T1, human GLP-1 receptor (Homo sapiens, UniProt P43220).
T1 construct: expressed in transfected cells; host or cells: BHK cells (parent line BHKTS13), clone FCW467-12A; membrane preparation
Description: GLP-1 receptor binding: competitive binding assay (125I-GLP-1, SPA) on isolated membranes at low and high HSA.

For experiment [2], the target named is T1, human GLP-1 receptor. Description: In vitro potency: CRE luciferase reporter gene assay in BHK cells expressing the human GLP-1 receptor. Type of experiment: cell-based. Summed up: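 Whole-cell assay in stably transfected BHK cells carrying CRE-driven firefly luciferase, 5×10^3 cells/well, in assay buffer with 2% ovalbumin and 0.2% Pluronic F-68. Compound working solutions were 0.2 μM.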

[3] abbreviates: Low HSA IC50, low HSA (max. 0.001% final assay concentration).
The mark [4] stands for this setting: high HSA (2.0% final assay concentration), read-out: High HSA IC50.
The mark [5] stands for this setting: low HSA (max. 0.001% final assay concentration), read-out: Low HSA IC50.
[6] abbreviates: whole cell reporter gene assay, BHK cells, human GLP-1 receptor, average of at least two replicates, read-out: EC50.

T1 sequence (P43220 24-463): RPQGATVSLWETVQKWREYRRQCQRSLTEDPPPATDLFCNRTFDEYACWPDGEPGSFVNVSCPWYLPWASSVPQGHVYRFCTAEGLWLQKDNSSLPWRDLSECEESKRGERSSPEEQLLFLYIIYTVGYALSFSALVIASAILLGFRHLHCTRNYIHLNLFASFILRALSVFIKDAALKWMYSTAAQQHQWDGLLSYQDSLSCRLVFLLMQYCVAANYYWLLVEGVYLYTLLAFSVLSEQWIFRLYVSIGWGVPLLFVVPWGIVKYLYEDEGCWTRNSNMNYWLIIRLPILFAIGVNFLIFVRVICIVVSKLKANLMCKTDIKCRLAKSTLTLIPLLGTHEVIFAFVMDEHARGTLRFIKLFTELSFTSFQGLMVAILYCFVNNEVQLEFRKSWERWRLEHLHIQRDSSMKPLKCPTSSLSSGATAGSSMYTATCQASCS

In general, IC50 refers to the concentration at which inhibition is half-maximal. As usually defined, the EC50 is the concentration that produces a half-maximal response. As for `CC[C@H](C)[C@H](NC(=O)[C@H](Cc1ccccc1)NC(=O)[C@H](CCC(=O)O)NC(=O)[C@H](CCCNC(=N)N)NC(=O)[C@H](C)NC(=O)[C@H](C)NC(=O)[C@H](CCC(N)=O)NC(=O)[C@H](CCC(=O)O)NC(=O)[C@H](CCC(=O)O)NC(=O)[C@H](CC(C)C)NC(=O)[C@H](Cc1ccc(O)cc1)NC(=O)[C@H](CO)NC(=O)[C@H](CO)NC(=O)[C@@H](NC(=O)[C@H](CC(=O)O)NC(=O)[C@H](CO)NC(=O)[C@@H](NC(=O)[C@H](Cc1ccccc1)NC(=O)[C@@H](NC(=O)CNC(=O)[C@H](CCC(=O)O)NC(=O)C(C)(C)NC(=O)[C@@H](N)Cc1c[nH]cn1)[C@@H](C)O)[C@@H](C)O)C(C)C)C(=O)N[C@@H](C)C(=O)N[C@@H](Cc1c[nH]c2ccccc12)C(=O)N[C@@H](CC(C)C)C(=O)N[C@H](C(=O)N[C@@H](CCCNC(=N)N)C(=O)NCC(=O)N[C@@H](CCCNC(=N)N)C(=O)N[C@@H](CCCCNC(=O)CN(CCCNC(=O)COCCOCCNC(=O)COCCOCCNC(=O)COCCOCCNC(=O)COCCOCCNC(=O)COCCOCCNC(=O)COCCOCCNC(=O)[C@@H](N)CCCCNC(=O)[C@@H](N)CCCCNC(=O)CCCNC(=O)CCCCCCCCCCCCCCCS(=O)(=O)O)CCCNC(=O)COCCOCCNC(=O)COCCOCCNC(=O)COCCOCCNC(=O)COCCOCCNC(=O)COCCOCCNC(=O)COCCOCCNC(=O)[C@@H](N)CCCCNC(=O)[C@@H](N)CCCCNC(=O)CCCNC(=O)CCCCCCCCCCCCCCCS(=O)(=O)O)C(=O)O)C(C)C` [Example 15], the concentration for half-maximal inhibition (IC50) was 3.4 nM on human GLP-1 receptor [1] (High HSA IC50, high HSA (2.0% final assay concentration)) and 0.05 nM at human GLP-1 receptor [1] (setting [3]). Besides, on human GLP-1 receptor [2], the half-maximal effective concentration (EC50) worked out at 0.0056 nM.

Regarding `CC[C@H](C)[C@H](NC(=O)[C@H](Cc1ccccc1)NC(=O)[C@H](CCC(=O)O)NC(=O)[C@H](CCCNC(=N)N)NC(=O)[C@H](C)NC(=O)[C@H](C)NC(=O)[C@H](CCC(N)=O)NC(=O)[C@H](CCC(=O)O)NC(=O)[C@H](CCC(=O)O)NC(=O)[C@H](CC(C)C)NC(=O)[C@H](Cc1ccc(O)cc1)NC(=O)[C@H](CO)NC(=O)[C@H](CO)NC(=O)[C@@H](NC(=O)[C@H](CC(=O)O)NC(=O)[C@H](CO)NC(=O)[C@@H](NC(=O)[C@H](Cc1ccccc1)NC(=O)[C@@H](NC(=O)CNC(=O)[C@H](CCC(=O)O)NC(=O)C(C)(C)NC(=O)[C@@H](N)Cc1c[nH]cn1)[C@@H](C)O)[C@@H](C)O)C(C)C)C(=O)N[C@@H](C)C(=O)N[C@@H](Cc1c[nH]c2ccccc12)C(=O)N[C@@H](CC(C)C)C(=O)N[C@H](C(=O)N[C@@H](CCCNC(=N)N)C(=O)NCC(=O)N[C@@H](CCCNC(=N)N)C(=O)N[C@@H](CCCCNC(=O)CN(CCCNC(=O)COCCOCCNC(=O)COCCOCCNC(=O)COCCOCCNC(=O)COCCOCCNC(=O)CC[C@H](NC(=O)CCCNC(=O)CCCCCCCCCCCCCCCS(=O)(=O)O)C(=O)O)CCCNC(=O)COCCOCCNC(=O)COCCOCCNC(=O)COCCOCCNC(=O)COCCOCCNC(=O)CC[C@H](NC(=O)CCCNC(=O)CCCCCCCCCCCCCCCS(=O)(=O)O)C(=O)O)C(=O)O)C(C)C` [Example 16, N{Epsilon-37}-[2-[bis[3-[[2-[2-[2-[[2-[2-[2-[[2-[2-[2-[[2-[2-[2-[[(4S)-4-carboxy-4-[4-(16-sulfohexadecanoylamino)butanoylamino]butanoyl]amino]ethoxy]ethoxy]acetyl]amino]ethoxy]ethoxy]acetyl]amino]ethoxy]ethoxy]acetyl]amino]ethoxy]ethoxy]acetyl]amino]propyl]amino]acetyl]-[Aib8,Glu22,Arg26,Arg34,Lys37]-GLP-1-(7-37)-peptide], the IC50 on human GLP-1 receptor [1] (setting [4]) was 3.3 nM; on human GLP-1 receptor [1] (setting [5]), 0.1 nM. Moreover, at human GLP-1 receptor [2] (setting [6]), the 50% effective concentration (EC50) came to 0.0017 nM.

On to `CC[C@H](C)[C@H](NC(=O)[C@H](Cc1ccccc1)NC(=O)[C@H](CCC(=O)O)NC(=O)[C@H](CCCNC(=N)N)NC(=O)[C@H](C)NC(=O)[C@H](C)NC(=O)[C@H](CCC(N)=O)NC(=O)[C@H](CCC(=O)O)NC(=O)[C@H](CCC(=O)O)NC(=O)[C@H](CC(C)C)NC(=O)[C@H](Cc1ccc(O)cc1)NC(=O)[C@H](CO)NC(=O)[C@H](CO)NC(=O)[C@@H](NC(=O)[C@H](CC(=O)O)NC(=O)[C@H](CO)NC(=O)[C@@H](NC(=O)[C@H](Cc1ccccc1)NC(=O)[C@@H](NC(=O)CNC(=O)[C@H](CCC(=O)O)NC(=O)C(C)(C)NC(=O)[C@@H](N)Cc1c[nH]cn1)[C@@H](C)O)[C@@H](C)O)C(C)C)C(=O)N[C@@H](C)C(=O)N[C@@H](Cc1c[nH]c2ccccc12)C(=O)N[C@@H](CC(C)C)C(=O)N[C@H](C(=O)N[C@@H](CCCNC(=N)N)C(=O)NCC(=O)N[C@@H](CCCNC(=N)N)C(=O)N[C@@H](CCCCNC(=O)CN(CCCNC(=O)COCCOCCNC(=O)COCCOCCNC(=O)COCCOCCNC(=O)COCCOCCNC(=O)[C@@H](N)CCCCNC(=O)[C@@H](N)CCCCNC(=O)CCCNC(=O)CCCCCCCCCCCCCCCS(=O)(=O)O)CCCNC(=O)COCCOCCNC(=O)COCCOCCNC(=O)COCCOCCNC(=O)COCCOCCNC(=O)[C@@H](N)CCCCNC(=O)[C@@H](N)CCCCNC(=O)CCCNC(=O)CCCCCCCCCCCCCCCS(=O)(=O)O)C(=O)O)C(C)C` [Example 14, N{Epsilon-37}-[2-[bis[3-[[2-[2-[2-[[2-[2-[2-[[2-[2-[2-[[2-[2-[2-[[(2S)-2-amino-6-[[(2S)-2-amino-6-[4-(16-sulfohexadecanoylamino)butanoylamino]hexanoyl]amino]hexanoyl]amino]ethoxy]ethoxy]acetyl]amino]ethoxy]ethoxy]acetyl]amino]ethoxy]ethoxy]acetyl]amino]ethoxy]ethoxy]acetyl]amino]propyl]amino]acetyl]-[Aib8,Glu22,Arg26,Arg34,Lys37]-GLP-1-(7-37)-peptide], for which the IC50 on human GLP-1 receptor [1] (setting [5]) came out at 0.04 nM. In addition, at human GLP-1 receptor [2] (setting [6]), the EC50 came to 0.0063 nM.

For `CC[C@H](C)[C@H](NC(=O)[C@H](Cc1ccccc1)NC(=O)[C@H](CCC(=O)O)NC(=O)[C@H](CCCNC(=N)N)NC(=O)[C@H](C)NC(=O)[C@H](C)NC(=O)[C@H](CCC(N)=O)NC(=O)[C@H](CCC(=O)O)NC(=O)[C@H](CCC(=O)O)NC(=O)[C@H](CC(C)C)NC(=O)[C@H](Cc1ccc(O)cc1)NC(=O)[C@H](CO)NC(=O)[C@H](CO)NC(=O)[C@@H](NC(=O)[C@H](CC(=O)O)NC(=O)[C@H](CO)NC(=O)[C@@H](NC(=O)[C@H](Cc1ccccc1)NC(=O)[C@@H](NC(=O)CNC(=O)[C@H](CCC(=O)O)NC(=O)C(C)(C)NC(=O)[C@@H](N)Cc1c[nH]cn1)[C@@H](C)O)[C@@H](C)O)C(C)C)C(=O)N[C@@H](C)C(=O)N[C@@H](Cc1c[nH]c2ccccc12)C(=O)N[C@@H](CC(C)C)C(=O)N[C@H](C(=O)N[C@@H](CCCNC(=N)N)C(=O)NCC(=O)N[C@@H](CCCNC(=N)N)C(=O)N[C@@H](CCCCNC(=O)CN(CCCNC(=O)COCCOCCNC(=O)COCCOCCNC(=O)COCCOCCNC(=O)COCCOCCNC(=O)CC[C@H](NC(=O)[C@H]1CC[C@H](CNC(=O)CCCCCCCCCCCCCCCS(=O)(=O)O)CC1)C(=O)O)CCCNC(=O)COCCOCCNC(=O)COCCOCCNC(=O)COCCOCCNC(=O)COCCOCCNC(=O)CC[C@H](NC(=O)[C@H]1CC[C@H](CNC(=O)CCCCCCCCCCCCCCCS(=O)(=O)O)CC1)C(=O)O)C(=O)O)C(C)C` [Example 22, N{Epsilon-37}-[2-[bis[3-[[2-[2-[2-[[2-[2-[2-[[2-[2-[2-[[2-[2-[2-[[(4S)-4-carboxy-4-[[4-[(16-sulfohexadecanoylamino)methyl]cyclohexanecarbonyl]amino]butanoyl]amino]ethoxy]ethoxy]acetyl]amino]ethoxy]ethoxy]acetyl]amino]ethoxy]ethoxy]acetyl]amino]ethoxy]ethoxy]acetyl]amino]propyl]amino]acetyl]-[Aib8,Glu22,Arg26,Arg34,Lys37]-GLP-1-(7-37)-peptide], the IC50 stood at 0.12 nM on human GLP-1 receptor [1] (setting [3]) and 47 nM at human GLP-1 receptor [1] (setting [4]). In addition, the concentration giving a half-maximal response (EC50) on human GLP-1 receptor [2] (setting [6]) came out at 0.0016 nM.

Turning to `CC[C@H](C)[C@H](NC(=O)[C@H](Cc1ccccc1)NC(=O)[C@H](CCC(=O)O)NC(=O)[C@H](CCCNC(=N)N)NC(=O)[C@H](C)NC(=O)[C@H](C)NC(=O)[C@H](CCC(N)=O)NC(=O)[C@H](CCC(=O)O)NC(=O)[C@H](CCC(=O)O)NC(=O)[C@H](CC(C)C)NC(=O)[C@H](Cc1ccc(O)cc1)NC(=O)[C@H](CO)NC(=O)[C@H](CO)NC(=O)[C@@H](NC(=O)[C@H](CC(=O)O)NC(=O)[C@H](CO)NC(=O)[C@@H](NC(=O)[C@H](Cc1ccccc1)NC(=O)[C@@H](NC(=O)CNC(=O)[C@H](CCC(=O)O)NC(=O)C(C)(C)NC(=O)[C@@H](N)Cc1c[nH]cn1)[C@@H](C)O)[C@@H](C)O)C(C)C)C(=O)N[C@@H](C)C(=O)N[C@@H](Cc1c[nH]c2ccccc12)C(=O)N[C@@H](CC(C)C)C(=O)N[C@H](C(=O)N[C@@H](CCCNC(=N)N)C(=O)NCC(=O)N[C@@H](CCCNC(=N)N)C(=O)N[C@@H](CCCCNC(=O)CN(CCCNC(=O)COCCOCCNC(=O)COCCOCCNC(=O)COCCOCCNC(=O)COCCOCCNC(=O)COCCOCCNC(=O)CC[C@H](NC(=O)CCCNC(=O)CCCCCCCCCCCCCCCS(=O)(=O)O)C(=O)O)CCCNC(=O)COCCOCCNC(=O)COCCOCCNC(=O)COCCOCCNC(=O)COCCOCCNC(=O)COCCOCCNC(=O)CC[C@H](NC(=O)CCCNC(=O)CCCCCCCCCCCCCCCS(=O)(=O)O)C(=O)O)C(=O)O)C(C)C` [Example 17, N{Epsilon-37}-[2-[bis[3-[[2-[2-[2-[[2-[2-[2-[[2-[2-[2-[[2-[2-[2-[[2-[2-[2-[[(4S)-4-carboxy-4-[4-(16-sulfohexadecanoylamino)butanoylamino]butanoyl]amino]ethoxy]ethoxy]acetyl]amino]ethoxy]ethoxy]acetyl]amino]ethoxy]ethoxy]acetyl]amino]ethoxy]ethoxy]acetyl]amino]ethoxy]ethoxy]acetyl]amino]propyl]amino]acetyl]-[Aib8,Glu22,Arg26,Arg34,Lys37]-GLP-1-(7-37)-peptide], the IC50 at human GLP-1 receptor [1] (setting [4]) turned out to be 3.2 nM; at human GLP-1 receptor [1] (setting [5]), 0.16 nM. For the same compound, the EC50 on human GLP-1 receptor [2] (setting [6]) came to 0.0012 nM.
